Measured values reported in patent US11793782B2, “Therapeutic agents for neurodegenerative diseases” (priority 2017, dated 2023).

Columns and labels:
[1] = tested on: NPC Chinese Hamster Ovary (CHO) cells; test: Relative lysosomal volume via LysoTracker, NPC CHO cells; type: cell-based; conditions: 1 mM, 72 hours, p<0.01 versus untreated NPC1-null
Source text: Relative lysosomal volume was quantified via LysoTracker.

[2] = tested on: downbeat nystagmus patients; test: Case studies, downbeat nystagmus patients; type: in vivo, human; conditions: downbeat nystagmus Patient 1; 10 mg twice daily for four weeks
Source text: The patient was diagnosed with downbeat nystagmus: the patient was severely impaired by blurred vision (oscillopsia) due to the nystagmus, and experienced difficulties while reading and writing. The patient's visual acuity was: right 0.75, left 0.67, binocular 0.83, and the downbeat nystagmus was documented by video-oculography. […] The patient could partially suppress the nystagmus by visual fixation, as evaluated using a target center (dot presented in the center of a display for 30 seconds, FIG. 13A) and in complete darkness using goggles covered with special glasses for 45 seconds (FIG. 13B). The results (median of slow phase velocity, SPV) were as follows: Target Center-horizontal: −0.02°/s, vertical: 2.41°/s; Complete Darkness-horizontal: 0.05°/s, vertical: 3.27°/s (FIG. 13C).

[3] = tested on: downbeat nystagmus patients; test: Case studies, downbeat nystagmus patients; type: in vivo, human; conditions: downbeat nystagmus Patient 2
[4] = tested on: frontotemporal dementia with parkinsonism patient; test: Case study, frontotemporal dementia with parkinsonism; type: in vivo, human; conditions: frontotemporal dementia with parkinsonism patient; treatment with L-Dopa and Ropinirol
Source text: After approximately one month of acetyl-leucine treatment, medication was stopped and the patient was re-examined 13 days later.

[5] = tested on: corticobasal syndrome patient; test: Case study, corticobasal syndrome; type: in vivo, human
Description: Gait analysis was performed before treatment commenced.

[6] = tested on: progressive supranuclear palsy patients; test: Case studies, progressive supranuclear palsy patients; type: in vivo, human
Description: After 27 days of acetyl-leucine treatment, medication was stopped and the patient was re-examined 60 days later. […] Gait analysis was performed before treatment commenced. […] Gait analysis was performed before treatment commenced. After 17 days of treatment, medication was stopped and the patient was re-examined 4 days later. […] Gait analysis was performed before treatment commenced. After three weeks of treatment, medication was stopped and the patient was re-examined.

MSA-P patients [7] = test: Case studies, multiple system atrophy Parkinson type (MSA-P) patients; type: in vivo, human; conditions: MSA-P Patient 3
Source text: Medication was stopped. […] The patient evaluated after one month on acetyl-DL-leucine. […] Episodes of mental confusion completely disappeared. The patient's cognitive structure seemed much clearer and straighter. […] The patient's spouse supported continuing the medication.

[8] = tested on: Lewy Body dementia patient; test: Case study, Lewy Body dementia; type: in vivo, human; conditions: Levodopa 100 mg 4× daily and Quetiapin 25 mg at night
Description: The patient started taking acetyl-leucine (3 g/day for one week; 5 g/day thereafter) and was evaluated after four weeks. […] Medication was reduced to 3 g/day, and the patient was instructed to stop medication about two weeks later.

[9] = tested on: restless leg syndrome patients; test: Case studies, restless legs syndrome (IRLS score); type: in vivo, human
Source text: A widely reported rating scale known as the International Restless Leg Syndrome Study Group Rating Scale (“IRLS”) was developed by the International Restless Legs Syndrome Study Group (“IRLSSG”) (http://www.irlssg.org/) (Walters et al., Validation of the International Restless Legs Syndrome Study Group rating scale for restless legs syndrome. Sleep medicine. 2003 Apr. 1; 4(2):121-32). The IRLS is a 10-item scale with scores ranging from 0 (no symptoms) to 40. Scores >30 are considered very severe, severe (Score 21-30), moderate (scores 11-20) and ≤10, mild. Use of the scale is common for clinical assessment, research and therapeutic trials with RLS. In one embodiment, treatment with leucine, acetyl-leucine, or a pharmaceutically acceptable salt thereof as described herein decreases the subject's International Restless Leg Syndrome Study Group Rating Scale (“IRLS”) compared to a baseline. In one embodiment, the IRLS is reduced compared to baseline by at least 10%, at least 20%, at least 30%, at least 40%, or at least 50%. In one embodiment, the IRLS is reduced by at least 60%, at least 70%, at least 80%, at least 90%, or 100%.
The patient in this case study was a person showing proximal weakness of the so lower limb. […] Upon consultation, they reported no sensory symptoms but complained of a restless leg syndrome at night and during resting periods of the day, occurring over the course of the last two years. Pre-treatment with dopamine agonist were without symptom relief. Serum creatine kinase activity was only mildly elevated at up to 400 IU/L. The patient was evaluated using the RLS diagnostic index (RLS-DI) (see Walters et al., Sleep Med 2003; 4(2):121-132;). The patient's International Restless Legs Syndrome Rating Scale score (IRLS) was 36, and thus a severe RLS was diagnosed. […] Re-introduction of the treatment re-declined the score to 8 after 2 weeks. Continuation of treatment over more than 22 weeks stabilized the IRLS score at 8.
The patient in this case study was a person showing proximal weakness of the lower limb. […] Upon consultation, they reported no sensory symptoms but complained of a restless leg syndrome at night and during resting periods of the day, occurring over the course of the last eight years. […] Serum creatine kinase activity was mildly elevated at 300 IU/L. Iron measurements and all additional lab investigations were normal. The patient was evaluated using the RLS-DI and the patient's IRLS was 32, and thus a moderate to severe RLS was diagnosed. […] Continuation of treatment over more than 28 weeks stabilized the IRLS score at 8.
The patient in this case study was a person showing mild proximal weakness of the upper and lower limbs slowly progressive. The patient had been diagnosed (genetically confirmed) with McArdle myopathy about 16 years ago. Upon consultation, they reported no sensory symptoms but complained about a severe fatigue and reduced stamina. The patient further reported a restless leg syndrome at night and during resting periods of the day, occurring over the course of the last 12 years. […] Serum creatine kinase activity was mildly elevated at 200 IU/L; however, the patient had 5 episodes of rhabdomyolysis during the past 20 years. Repeated iron measurements and all additional lab investigations were normal. The patient was evaluated using the RLS-DI and the patient's IRLS was 34, and thus a severe RLS was diagnosed. […] Continuation of treatment over more than 30 weeks stabilized the IRLS score at 10. In addition, the patient's fatigue declined (Fatigue Severit Scale: 9 (minimum) to 63 (maximum)) from 53 to 28.

MSA-P patients [10] = test: Case studies, multiple system atrophy Parkinson type (MSA-P) patients; type: in vivo, human; conditions: MSA-P Patient 1; 100/25 mg 3×daily
ALS patients = test: Case studies, amyotrophic lateral sclerosis (ALS) patients; type: in vivo, human; conditions: ALS Patient 1; medication started around the time of ALS diagnosis
Source text: The results were documented by video.

[11] = tested on: rat model of an acute unilateral labyrinthectomy; conditions: Zwergal et al. (2016); Gunther et al. (2015); cited from earlier work

CC(C)CC(N)C(=O)O (racemic) [DL-leucine]
Lysosomal volume (LysoTracker) [1]: significantly reduced lysosomal volume

Nc1ccncc1 [4-aminopyridine, reference compound]
Clinical response [2]: did not give rise to any benefit | Clinical response [3]: did not benefit

CC(C)C[C@@H](N)C(=O)O [D-leucine]
Lysosomal volume (LysoTracker) [1]: significantly reduced lysosomal volume

N[C@@H](Cc1ccc(O)c(O)c1)C(=O)O [L-Dopa, reference compound]
Clinical response [4]: little improvement | Clinical response [5]: no improvement | Clinical response ([6]; PSP Patient 1): little improvement | Clinical response ([6]; PSP Patient 2): no levodopa response | Clinical response ([6]; PSP Patient 3): no levodopa response | Clinical response ([6]; PSP Patient 4): slight levodopa response | Tolerability (MSA-P patients [7]): suspended due to side effects | Clinical response [8]: improved the symptomatology | Symptom relief (pre-treatment) ([9]; RLS Patient 2): without sustained symptom relief | Symptom relief (pre-treatment) ([9]; RLS Patient 3): without sustained symptom relief | Clinical response (MSA-P patients [10]): discreet Levodopa response

CC(C)C[C@H](N)C(=O)O [L-leucine]
Lysosomal volume (LysoTracker) [1]: significantly reduced lysosomal volume

OCCOCCN1CCN(C2=Nc3ccccc3Sc3ccccc32)CC1 [Quetiapin, reference compound]
Clinical response [8]: improved the symptomatology

Nc1nc2ccc(OC(F)(F)F)cc2s1 [Riluzol, reference compound]
Clinical symptomatology (ALS patients): clinical symptomatology remained unchanged

CCCN(CCC)CCc1cccc2c1CC(=O)N2 [Ropinirol, reference compound]
Clinical response [4]: little improvement

CC(=O)N[C@H](CC(C)C)C(=O)O [acetyl-D-leucine]
Lysosomal volume (LysoTracker) [1]: significantly reduced lysosomal volume

CC(=O)N[C@@H](CC(C)C)C(=O)O [acetyl-L-leucine]
Lysosomal volume (LysoTracker) [1]: significantly reduced lysosomal volume | Effect on postural compensation [11]: significant effect

CC(C)C[C@H](CN)CC(=O)O [pregabaline, reference compound]
Symptom relief (pre-treatment) ([9]; RLS Patient 2): without sustained symptom relief | Symptom relief (pre-treatment) ([9]; RLS Patient 3): without sustained symptom relief
